From patent US6815205B2, “Auxinic analogues of indole-3-acetic acid” (Invitrogen Corporation, priority 1995, dated 2004)
“Also recorded” adds a separate entry of the source.

Legend:
Arabidopsis thaliana = test system: Arabidopsis thaliana
Procedure: Seeds of Arabidopsis thaliana ecotypes Columbia and Landersberg ereta are provided by Dr. Keith Davis (The Ohio State University, Columbus). Tissues of hypocotyl are removed from 10-day-old seedlings, transferred to MS complete medium containing (1) different concentrations of IAA or IAA analogue with different concentrations of N^6.(Δ2Isopentenyl) adenine (2iP) and (2) different concentrations of IAA analogue with different concentrations of 2iP, BAP, or kinetin. The explants are incubated at 23° C. using an 18 h light/6 h dark cycle until the formation of green calli and shoots.

[1] = disclosed in copending U.S. application Ser. No. 08/430,209; cited from earlier work
transformed potato = assay: Regeneration of Agrobacterium-mediated transformed potato tissue under kanamycin selection; type: cell-based; design: key to Potato Callus (regeneration of transformed tissue): +(−) means preliminary observation; details: 100 mg/l kanamycin; for regeneration of kanamycin resistant calli in transformed potato: in the presence of BAP; for Potato Callus (regeneration of transformed tissue): BAP 0.5 mg/l, 2 mg/l IAA derivative, Agrobacterium pBI121
Procedure: (§1) These IAA analogues were further evaluated for their abilities to effect the regeneration of plant tissues comprising foreign DNA. Tobacco and potato tissues were subjected to Agrobacterium-mediated transformation techniques, including cocultivation with Agrobacterium containing pBI121 and selecting with MS complete medium containing 0.5 mg/l BAP, 2 mg/l IAA derivative and 100 mg/l kanomycin.
Plant transformation in potato stems is carried out as described above in section (a) for tobacco.
(§2) Agrobacterium-mediated plant transformation was performed as described by Lin et al. (1994) Focus 16:72-77. For example:
In another example, potato leaf discs were transformed with the Agrobacterium-mediation technique as described above for tobacco. The potato explants were then subjected to incubation with IAA analogues in the absence and presence of cytokinin to screen for auxinic activities.

transformed tobacco = assay: Regeneration of Agrobacterium-mediated transformed tobacco tissue under kanamycin selection; type: cell-based; details: in the presence of BAP; 100 mg/l kanamycin
Procedure: as §1, §2
In tobacco, the leaf discs were incubated with 10^9 cells/ml of Agrobacterium tumefaciens LBA4404 cells containing pBI121 in MS complete medium with 0.5 mg/l MES for 10 minutes, transferred to solid MS complete medium, and incubated for two days at 25° C., using an 18 hour light/6 hour dark cycle for cocultivation. After cocultivation, the explants were transferred to the MS medium containing a different ratio of BAP/IAA or BAP/IAA analogue, 100 mg/l kanamycin and 500 mg/l carbenicillin and incubated at 25° C. using an 18 hour light/6 hour dark cycle for shoot formation.

tobacco leaf discs [2] = assay: Regeneration of roots or calli from tobacco leaf explants, MS complete medium with auxin only; type: cell-based, Nicotiana tobaccum Xanthi; design: key to Tobacco Callus (regeneration): +(−) means preliminary observation; details: for Tobacco Callus (regeneration): Auxins 2 mg/l, no cytokinin, MS complete medium
Procedure: (§3) In particular embodiments of the invention, various IAA analogues were screened for auxinic activity by incubating different plant tissues, e.g., tobacco and tomato leaf discs and potato stems in (a) MS complete medium (obtained from Life Technologies, Inc., Gaithersburg, Md.) containing different concentrations of auxin only and (2) the MS complete auxin medium containing different ratios of cytokinin/auxin.
(§4) In another embodiment of the invention, IAA analogues were screened for auxinic activity. […] Table 1 documents the ability of the different IAA analogues to stimulate the regeneration of roots or calli from tobacco, tomato and potato. In general, IAA analogues having a bromine substitution at the 2
Seeds of Nicotiana tobaccum Xanthi are provided by Dr. James Saunders (USDA, Beltsville, Md.). Young tobacco leaves are removed and cut into small pieces.
The regeneration of plant tissues using tissue culture depends on plant hormones such as auxin and cytokinin. It is known that the presence of an auxin in plant tissue cultured on Murashige and Skoog (MS) medium (Murashige, T. and F. Skoog (1962) Physiol. Plant 15:473-497) stimulates the formation of root structure whereas the formation of callus is observed when not only the auxin but also a cytokinin complement the MS nutrient medium. Therefore, evaluation of a test compound as a potential new auxin is performed by incubating tobacco leaf discs in (a) the MS complete medium containing different concentrations of auxin only and (b) the MS complete medium containing different ratios of cytokinin to auxin concentrations (cytokinin/auxin).
(§5) Young tobacco leaves, potato stems, tomato leaves and cassava leaves and stems from one-month-old plants were removed and cut into small pieces. The explants were incubated on (1) the MS complete medium containing different concentrations of auxin related compounds only (2) the MS complete medium containing different concentrations of auxin-related compounds and 0.5 mg/l benzylaminopurine (BAP) using an 18 hour light/6 hour dark cycle until the formation of green calli, shoots or roots.

Cassava leaves and stems = assay: Regeneration of shoots or calli from cassava leaves and stems with auxin in the presence of BAP; type: cell-based; details: 2 mg/l with 0.5 mg/l BAP, MS complete medium
Procedure: Further, examples of IAA analogues of the invention were evaluated for auxinic activity in the presence of a cytokinin.
In another embodiment of the invention, IAA analogues of the present invention were applied to the regeneration of plant tissues known in the art to be difficult to regenerate, such as cassava, woody plants, and monocotyledonous crops [Vasil and Vasil (1994) in Plant Cell and Tissue Culture (Vasil and Thorpe, eds.), Kluwer Academic Publishers, Dordrech, Netherlands; Chee (1995) Plant Cell Reports 14:753-757; Bums and Schwartz (1996) Plant Cell Reports 15:405-408; Mihaljevic et al. (1996) Plant Cell Reports 15:610-614; Schopke et al. (1996) Nature Biotechnology 14:731].
Stems or third young leaves were removed from the one month old Cassava plants and cut into small pieces. The explants were incubated on MS complete medium containing different concentrations of auxin related compounds and 0.5 mg/l benzylaminopurine (BAP).
(§6) Young tobacco leaves, potato stems, tomato leaves and cassava leaves and stems from one-month-old plants were removed and cut into small pieces. […]

potato stems [3] = assay: Regeneration of roots or calli from potato stem explants, MS complete medium with auxin only; type: cell-based; design: key to Potato Roots (regeneration): +(−) means preliminary observation; details: for root formation in potato stems: absence of BAP
Procedure: as §3, §4
Potato seeds of variety “Kent V. F.” are provided by Dr. James Saunders (USDA, Beltsville, Md.). Young potato stems are removed and cut into small pieces. Explants are incubated in MS complete medium with auxin in the presence or absence of cytokinin as described in section (a) above for tobacco.
as §5

potato stems [4] = assay: Regeneration of shoots or calli from potato stem explants, auxin together with cytokinin (BAP); type: cell-based; design: key to Potato Callus (regeneration): +(−) means preliminary observation
Procedure: In particular embodiments of the invention, various IAA analogues were screened for auxinic activity by incubating different plant tissues, e.g., tobacco and tomato leaf discs and potato stems in (a) MS complete medium (obtained from Life Technologies, Inc., Gaithersburg, Md.) containing different concentrations of auxin only and (2) the MS complete auxin medium containing different ratios of cytokinin/auxin. These IAA derivatives were further evaluated for auxinic activity in the presence of a cytokinin. […] Incubation of plant tissues Potato seeds of variety “Kent V. F.” are provided by Dr. James Saunders (USDA, Beltsville, Md.). Young potato stems are removed and cut into small pieces. Explants are incubated in MS complete medium with auxin in the presence or absence of cytokinin as described in section (a) above for tobacco. Young tobacco leaves, potato stems, tomato leaves and cassava leaves and stems from one-month-old plants were removed and cut into small pieces. The explants were incubated on (1) the MS complete medium containing different concentrations of auxin related compounds only (2) the MS complete medium containing different concentrations of auxin-related compounds and 0.5 mg/l benzylaminopurine (BAP) using an 18 hour light/6 hour dark cycle until the formation of green calli, shoots or roots.

tobacco leaf discs [5] = assay: Regeneration of shoots or calli from tobacco leaf explants, auxin together with cytokinin (BAP); type: cell-based, Nicotiana tobaccum Xanthi; design: key to Tobacco Callus (regeneration): +(−) means preliminary observation
Procedure: In particular embodiments of the invention, various IAA analogues were screened for auxinic activity by incubating different plant tissues, e.g., tobacco and tomato leaf discs and potato stems in (a) MS complete medium (obtained from Life Technologies, Inc., Gaithersburg, Md.) containing different concentrations of auxin only and (2) the MS complete auxin medium containing different ratios of cytokinin/auxin. These IAA derivatives were further evaluated for auxinic activity in the presence of a cytokinin. […] Incubation of plant tissues Seeds of Nicotiana tobaccum Xanthi are provided by Dr. James Saunders (USDA, Beltsville, Md.). Young tobacco leaves are removed and cut into small pieces. […] The regeneration of plant tissues using tissue culture depends on plant hormones such as auxin and cytokinin. It is known that the presence of an auxin in plant tissue cultured on Murashige and Skoog (MS) medium (Murashige, T. and F. Skoog (1962) Physiol. Plant 15:473-497) stimulates the formation of root structure whereas the formation of callus is observed when not only the auxin but also a cytokinin complement the MS nutrient medium. […]

tomato leaf discs [6] = assay: Regeneration of roots or calli from tomato leaf explants, MS complete medium with auxin only; type: cell-based; details: 0.5, 2.0 and 8.0 mg/l, absence of BAP
Procedure: as §3, §4
Tomato seeds of variety “Moneymaker” are provided by Dr. James Saunders (USDA, Beltsville, Md.). Young tomato leaves are removed and cut into small pieces. Explants are incubated in MS complete medium with auxin in the presence or absence of cytokinin as described in section (a) above for tobacco.
as §6

tomato leaf discs [7] = assay: Regeneration of shoots or calli from tomato leaf explants, auxin together with cytokinin (BAP); type: cell-based; details: 0.5, 2.0 or 8.0 with 0.5 mg/l BAP
Procedure: In particular embodiments of the invention, various IAA analogues were screened for auxinic activity by incubating different plant tissues, e.g., tobacco and tomato leaf discs and potato stems in (a) MS complete medium (obtained from Life Technologies, Inc., Gaithersburg, Md.) containing different concentrations of auxin only and (2) the MS complete auxin medium containing different ratios of cytokinin/auxin. These IAA derivatives were further evaluated for auxinic activity in the presence of a cytokinin. […] Incubation of plant tissues Tomato seeds of variety “Moneymaker” are provided by Dr. James Saunders (USDA, Beltsville, Md.). Young tomato leaves are removed and cut into small pieces. Explants are incubated in MS complete medium with auxin in the presence or absence of cytokinin as described in section (a) above for tobacco. Young tobacco leaves, potato stems, tomato leaves and cassava leaves and stems from one-month-old plants were removed and cut into small pieces. The explants were incubated on (1) the MS complete medium containing different concentrations of auxin related compounds only (2) the MS complete medium containing different concentrations of auxin-related compounds and 0.5 mg/l benzylaminopurine (BAP) using an 18 hour light/6 hour dark cycle until the formation of green calli, shoots or roots.

Compound | regeneration of kanamycin resistant calli in transformed potato (transformed potato) | regeneration of kanamycin resistant calli and shoots in transformed tobacco (transformed tobacco) | Potato Callus (regeneration of transformed tissue) (transformed potato) | further results
5-bromo-IAA |  |  |  | effectiveness in stimulating the regeneration of green calli, relative to IAA (Arabidopsis thaliana): between two and four times more effective than IAA; callus and shoot formation in combination with cytokinin [1]: both callus and shoot formation are observed
O=C(O)Cc1c[nH]c2ccc(Cl)cc12 [5-ClIAA, 5-chloroindole-3-acetic acid] | stimulated | stimulated |  | 
CCc1ccc2[nH]cc(CC(=O)O)c2c1 [5-EtIAA, 5-ethylindole-3-acetic acid] | stimulated | stimulated |  | Tobacco Callus (regeneration) (tobacco leaf discs [2]): +(−)
O=C(O)Cc1c[nH]c2ccc(F)cc12 [5-FIAA, 5-fluoroindole-3-acetic acid] | stimulated | stimulated |  | shoot formation in cassava stems and leaves (Cassava leaves and stems): promoted the formation of shoots in cassava stems and to a greater extent from cassava leaves; also recorded: regeneration of shoots
O=C(O)Cc1c[nH]c2ccc(I)cc12 [5-IIAA, 5-iodoindole-3-acetic acid] |  |  |  | Potato Roots (regeneration) (potato stems [3]; Auxins 2 mg/l, no cytokinin, MS complete medium): +(−); Potato Callus (regeneration) (potato stems [4]; BAP 0.5 mg/l + Auxins 2 mg/l): +(−); Tobacco Callus (regeneration) (tobacco leaf discs [5]; BAP 0.5 mg/l + Auxins 2 mg/l): +(−); Tobacco Callus (regeneration) (tobacco leaf discs [2]): +(−)
COc1ccc2[nH]cc(CC(=O)O)c2c1 [5-MeoIAA, 5-methoxyindole-3-acetic acid] | stimulated | stimulated |  | 
O=C(O)Cc1c[nH]c2cc(Br)ccc12 [6-BrIAA, 6-bromoindole-3-acetic acid] |  |  |  | growth response of tomato leaf discs (tomato leaf discs [6]): only root formation was observed; root formation in potato stems (potato stems [3]): root formation was diminished; root formation in potato stems (potato stems [3]; concentration increased from 0.5 to 2.0 mg/l): root formation increased; growth response of tomato leaf discs (tomato leaf discs [7]): calli, not roots, were formed; growth response of potato stems (potato stems [4]; 0.5, 2.0, 8.0 mg/l with BAP 0.5 mg/l): callus formation was observed at all ratios of cytokinin/auxin; growth response of tobacco leaf discs (tobacco leaf discs [5]; different concentrations, presence of BAP): the formation of both shoots and calli occurred; growth response of tobacco leaf discs (tobacco leaf discs [2]; different concentrations, absence of BAP): both the formation of roots and the formation of calli were observed
O=C(O)Cc1c[nH]c2c(Br)cccc12 [7-BrIAA, 7-bromoindole-3-acetic acid] | stimulated | stimulated | +(−) | 
CCc1cccc2c(CC(=O)O)c[nH]c12 [7-EtIAA, 7-ethylindole-3-acetic acid] | stimulated | stimulated | +(−) | 
O=C(O)Cc1c[nH]c2c(F)cccc12 [7-FIAA, 7-fluoroindole-3-acetic acid] | stimulated | stimulated | +(−) | 
